{"source": "patent US10588963B2", "about": "“Methods for providing adjuvanted virosomes and adjuvanted virosomes obtainable thereby” (Bestewil Holding B.V., priority 2014, dated 2020)", "assay": "Equilibrium density gradient centrifugation of adjuvanted RSV virosomes", "assay_type": "physicochemical", "details": "10-60% sucrose gradient, spun 66 hrs, after overnight storage at 4° C.", "method": "To 975 μl of virosomes, containing 850 nmol of phospholipids, 25 μl of DMSO solution containing 153 nmol of 3-D-PHAD was rapidly added while agitating the sample on a vortex mixer. After overnight storage at 4° C., the density of the virosomes was analyzed by equilibrium density gradient centrifugation loaded on 10-60% sucrose gradients, which were spun for 66 hrs in a Sorvall AH 650 rotor at 50 krpm. […] Samples from the gradient were analyzed for sucrose concentration by refractometry, giving a measure of density, phosphate (both lipid and 3-D-PHAD), and protein.\nThe above adjuvant solutions were added to four tubes with 950 μl of virosomes each, containing 850 nmol of phospholipids, with rapid mixing on a vortex. After overnight storage at 4° C., the density of the virosomes was analyzed by equilibrium density gradient centrifugation on 10-60% sucrose gradients, which were spun for 66 hrs in a Sorvall AH 650 rotor at 120 000 g. Samples from the gradient were analyzed for density, phosphate (both lipid and 3 DPHAD), and protein."}
{"smiles": "CCCCCCCCCCCCCC(=O)O[C@H](CCCCCCCCCCC)CC(=O)O[C@@H]1[C@@H](NC(=O)C[C@@H](CCCCCCCCCCC)OC(=O)CCCCCCCCCCC)[C@H](OC[C@H]2O[C@H](O)[C@H](NC(=O)C[C@H](O)CCCCCCCCCCC)[C@@H](O)[C@@H]2O)O[C@H](CO)[C@H]1OP(=O)(O)O.N", "note": "[3-D-PHAD]", "values": [{"measurement": "density of band in equilibrium density gradient", "result": "around 1.12 g/ml"}]}
